Laboratory results: US20240261294A1, “METHOD FOR TREATING IDH INHIBITOR-RESISTANT SUBJECTS” (Eli Lilly and Company, priority 2021, published 2024)
Residue numbers refer to the chain shown, from its start. Read-outs that look alike come from different tables or passages of the source.

Key:
IDH2 R172K_G260A cis = biological target: T1, IDH2 R172K_G260A cis (Homo sapiens, UniProt P48735, G260A/R172K); assay: Inhibition of 2-HG production in IDH2 mutant U-87 MG cells; type: cell-based; details: 16 hours incubation, 50K cells/well, 100 μl media/well, read-out: Relative IC50 (nM) Mean, inhibition of 2-HG production
T1 construct: expressed in transfected cells; host or cells: U-87 MG
T1 sequence (P48735 40-452 R172K/G260A): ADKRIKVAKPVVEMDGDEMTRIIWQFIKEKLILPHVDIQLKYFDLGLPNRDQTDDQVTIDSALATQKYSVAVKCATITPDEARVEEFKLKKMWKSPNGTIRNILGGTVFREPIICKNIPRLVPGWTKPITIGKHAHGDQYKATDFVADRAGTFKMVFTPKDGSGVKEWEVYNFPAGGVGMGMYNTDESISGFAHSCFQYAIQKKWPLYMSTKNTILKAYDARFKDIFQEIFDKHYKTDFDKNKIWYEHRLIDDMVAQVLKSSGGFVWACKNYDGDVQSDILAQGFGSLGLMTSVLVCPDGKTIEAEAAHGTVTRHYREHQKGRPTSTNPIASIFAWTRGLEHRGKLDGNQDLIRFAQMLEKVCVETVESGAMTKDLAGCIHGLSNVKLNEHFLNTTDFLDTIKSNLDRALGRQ
Method: (§1) Compounds and Formulation. Compound A may be synthesized as described in WO/18/111707. Compound A is prepared as a 20 mM stock in 100% DMSO (dimethyl sulfoxide) (Sigma, D2438) and diluted serially in 100% DMSO to achieve the desired concentrations. DMSO preparations are further diluted with cell culture media prior to addition in the assay.
(§2) Cell lines. U-87 MG cells (ATCC, HTB-14) are cultured and assayed in MEM (Gibco, 11095) with 2 mM GlutaMAX (Gibco, 35050), 1 mM Pyruvate (Gibco, 11360), 0.1 mM NEAA ((Non-essential amino acid) Gibco, 11140) and 10% dialyzed FBS (Fetal bovine serum) (Gibco, 26400).
(§3) Cell-based inhibition assays. Cell-based assays are performed by measuring 2-HG in U-87 MG cells in which IDH2 mutations are expressed.
(§4) DNA constructs encoding IDH2 mutations are introduced into U-87 MG cells using transfection (Promega FuGENE HD, E2311) or lentiviral transduction, and the IDH2-mutant expressing cell lines are selected using blasticidin (5 μg/ml) or puromycin (1 μg/ml). Second site mutations (Q316E, I319M, P167R, and G260A) are evaluated in cis (same monomer as driver mutation within dimer) or in trans (opposite monomer from driver mutation in dimer). For compound treatments, 12,500 or 50,000 cells per well in culture medium (150 μl or 100 μl, respectively) are plated in 96 well cell culture plates (Falcon, 353377) 2 hrs prior to treatment. Cells are treated with serial dilutions of compound A in standard growth media. Plates are incubated in a mammalian cell culture incubator (humidified, 37° C., 5% CO2) for 16 or 72 hrs. Following the incubation period, the media is aspirated and cell extracts are prepared by addition of ice-cold 80% methanol/20% water (100 μL) containing liquid chromatography-mass spectrometry (LC-MS) internal standards (1 μM ^13C4 α-KG and ^13C5 2-HG) per well for ion pairing LC-MS method. 96-well sample plates are then sealed, shaken at 450 rpm for 10 min, and then placed at −20° C. and stored until LC-MS analysis.
(§5) LC-MS metabolite analysis of conditioned media and cell lysates. The effect of inhibitors on the concentrations of 2-HG are determined by LC-MS analysis of cell lysates using an ion-pairing method as described below.
(§6) Calibration curves are prepared by spiking 2-HG and α-KG into 80% methanol/20% water containing LC-MS internal standards (1 μM ^13C4 α-KG and 1 μM ^13C5 2-HG). The quantitation of 2-HG and α-KG is accomplished using an AB Sciex 6500 mass spectrometer with an Electrospray Ionization (ESI) probe and interfaced with an Ultra Performance Liquid Chromatography (UHPLC) system in the negative multiple-reaction monitoring (MRM) mode. The UHPLC system consists of an Agilent 1290 binary pump, thermostatted column compartment (TCC), and sampler. The injection volume is 1 μL for cell culture extracts. The extracts are chromatographically resolved using a Hypercarb column, 2.1×20 mm, […] Javelin HTS (Thermo Scientific, PN: 35005-022135). Mobile phase A is water/10 mM tributylamine/15 mM acetic acid. Mobile phase B is acetonitrile/20 mM tributylamine/30 mM acetic acid. The solvent flow rate is 1.0 mL/min. The isocratic condition is kept at 26% mobile phase B. The valve, sample loop, and needle are washed with 50% acetonitrile: 50% methanol for 20 seconds. The column temperature is kept at 55° C. Calibration curves are calculated by least-square linear regression with 1/x weighting. 2-HG and α-KG are quantified using standard curve and ratio of the peak area of analytes to internal standard. Data analysis is performed using MultiQuant 3.0 (AB Sciex). The raw data are exported to Microsoft Excel spreadsheets.
(§7) Determination of IC50 Curves. IC50 curves for each compound are obtained using four parameter data fitting analysis in GraphPad/Prism software.

IDH2 R140Q_Q316E cis = biological target: T2, IDH2 R140Q_Q316E cis (Homo sapiens, UniProt P48735, Q316E/R140Q); assay: as above; type: cell-based
T2 construct: expressed in transfected cells; host or cells: U-87 MG
T2 sequence (P48735 40-452 R140Q/Q316E): T1 sequence (P48735 40-452 R172K/G260A) with R101Q, K133R, A221G, Q277E
Method: as §1, §2, §3, §4, §5, §6, §7

IC50 (IDH2 R172K_G260A cis): 13 nM
IC50 (IDH2 R140Q_Q316E cis; 16 hours incubation, 50K cells/well, 100 μl media/well, read-out: Relative IC50 (nM) Mean, inhibition of 2-HG production): 16 nM
IC50 (IDH2 R140Q_Q316E cis; 72 hours incubation, 12.5K cells/well, 150 μl media/well, read-out: IC50, inhibition of 2-HG production): 22 nM
Compound: C=CC(=O)N1CCN([C@@H](CC2CC2)c2ccc([C@H](C)Nc3ncc4c(n3)N(CC)C(=O)OC4)cc2)CC1 [Compound A, 7-[[(1S)-1-[4-[(1S)-2-cyclopropyl-1-(4-prop-2-enoylpiperazin-1-yl)ethyl]phenyl]ethyl]amino]-1-ethyl-4H-pyrimido[4,5-d][1,3]oxazin-2-one]
